Measurements published in paper PMC3954793, “SHP-2 Binds to Caveolin-1 and Regulates Src Activity via Competitive Inhibition of CSK in Response to H2O2 in Astrocytes” (PLoS ONE, 2014).
“Also recorded” adds a separate entry of the source. Ends that are not written are not given here.

Assays:
[1] = tested on: Src (Tyr 419 phosphorylation); test: Immunoblot of p-Src Y419; assay type: cell-based, human; settings: CRT-MG cells; PTPi IV 0–10 µM, 30 min; 5 mM H2O2, 10 min; n = 3
Protocol: (§1) Cells were plated and transfected with green fluorescence protein (GFP) siRNA (Samchully Pharm Co. Ltd., Seoul, Korea) as a control group and human CSK siRNA and human SHP-2 siRNA from Bioneer (Daejeon, Korea) using Lipofectamine RNAiMAX (Invitrogen, Carlsbad, CA, USA) according to the manufacturer’s instructions to achieve a final concentration of 300 nM.
(§2) Figure 7 SHP-2 and CSK reciprocally regulate H2O2-induced Src activation. […] Tubulin was evaluated as a loading control. Bottom panel, Densitometric quantification of p-Src Y419 levels (empty bars) and p-Src Y530 levels (filled bars), normalized to the level of total Src. Results are expressed as percentage of H2O2-treated values in control siRNA presented as mean ± SD. (*p<0.05 vs. H2O2-treated cells transfected with control siRNA; #p<0.05 between SHP-2 siRNA-transfected cells and CSK siRNA-transfected cells; n = 3). (B) Inhibition of SHP-2 by PTPi IV attenuated the H2O2-induced activation of the Src signaling pathway. CRT-MG cells were treated with 5 mM H2O2 or not for 10 min in the presence of 5 or 10 µM PTPi IV for 30 min, and lysed in cold-RIPA buffer. Antibodies against p-SHP-2, SHP-2, p-Src, Src, p-FAK, FAK, p-ERK, ERK, and tubulin were used for immunoblotting. Bottom panel, Densitometric quantification of p-Src Y419 levels (empty bars) and p-Src Y530 levels (filled bars), normalized to the level of total Src. […] (p, phospho).

[2] = tested on: Src (Tyr 530 phosphorylation); test: Immunoblot of p-Src Y530; assay type: cell-based, human; settings: CRT-MG cells; PTPi IV 0–10 µM, 30 min; 5 mM H2O2, 10 min; n = 3
Protocol: as §1, §2

ERK phosphorylation = test: Immunoblot of p-ERK; assay type: cell-based, human; settings: CRT-MG cells; PTPi IV 5 or 10 µM, 30 min; 5 mM H2O2, 10 min
Protocol: as §1, §2

FAK phosphorylation = test: Immunoblot of p-FAK; assay type: cell-based, human; settings: CRT-MG cells; PTPi IV 5 or 10 µM, 30 min; 5 mM H2O2, 10 min
Protocol: as §2

[3] = tested on: SHP-2 (Y542 and Y580 phosphorylation); test: Immunoblot of p-SHP-2 Y542 and Y580; assay type: cell-based, human; settings: CRT-MG cells; PTPi IV 5 or 10 µM, 30 min; 5 mM H2O2, 10 min
Protocol: as §2

recombinant GST-SHP-2 = biological target: T1, recombinant GST-SHP-2 (Homo sapiens, UniProt Q06124); test: Surface plasmon resonance, rGST-SHP-2; assay type: binding
T1 construct: purchased Abnova (Taipei, Taiwan)
T1 sequence (Q06124 1-593): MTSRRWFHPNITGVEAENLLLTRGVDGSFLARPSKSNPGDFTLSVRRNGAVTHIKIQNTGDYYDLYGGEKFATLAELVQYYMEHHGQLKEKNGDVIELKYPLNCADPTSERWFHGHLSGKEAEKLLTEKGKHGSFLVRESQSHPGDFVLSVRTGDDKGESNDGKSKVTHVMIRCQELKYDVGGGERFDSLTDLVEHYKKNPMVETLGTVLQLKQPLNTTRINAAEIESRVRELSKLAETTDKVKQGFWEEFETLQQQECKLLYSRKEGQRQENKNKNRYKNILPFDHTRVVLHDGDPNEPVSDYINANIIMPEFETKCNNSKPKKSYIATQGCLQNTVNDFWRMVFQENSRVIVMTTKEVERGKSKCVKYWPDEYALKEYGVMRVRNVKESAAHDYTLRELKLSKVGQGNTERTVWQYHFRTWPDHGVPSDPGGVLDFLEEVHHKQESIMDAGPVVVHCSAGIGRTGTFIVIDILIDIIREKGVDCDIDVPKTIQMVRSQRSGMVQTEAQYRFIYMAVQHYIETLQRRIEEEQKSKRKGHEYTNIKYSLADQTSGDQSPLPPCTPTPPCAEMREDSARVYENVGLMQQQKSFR
Protocol: (§3) SPR was performed on a SPRmicro system (K-MAC, Daejeon, Korea). A G1 chip (bare surface gold chip) was dipped into a 3 mM N-hydroxylsuccinimide self-assembled monolayer to form covalent bonds among protein amine groups. After washing with ethanol, the chip was purged with N2 gas. Recombinant GST-SHP-2 or GST-CSK was mixed with 20% ethylene glycol and then spotted onto the chip. Ligands were reacted on room temperature for 12 h to allow the ligands to become fixed onto the chip. After the reaction, the […] by washing with 1×Tris-buffered saline (TBS), and purged with N2 gas. SPR signal baselines were stabilized using 1×TBS running buffer, and different dilutions of caveolin-1 phosphopeptides (Cav-1 pY 14, GHL-pY-TVPIREQGN) in buffer were injected at a flow rate of 20 µL/min. Response unit (RU) alterations following sample reactions were analyzed by comparing affinities to the chip surface. Experiments were conducted by switching from samples immobilized on the chip (Cav-1 pY 14) to injected samples (rGST-CSK or rGST-SHP-2). […] Equilibrium binding curves and RU values are shown.
(§4) Figure 5 SPR and flow cytometric analyses of SHP-2 and CSK binding to phosphorylated-Tyr peptides of caveolin-1. […] After stringent wash, bound SHP-2 or CSK to caveolin-1 peptide conjugated beads were measured by Accuri C6 flow cytometer.

recombinant GST-CSK = test: Surface plasmon resonance, rGST-CSK; assay type: binding; settings: rGST-CSK immobilized on G1 chip; peptide 10 to 1,000 µg/mL injected, 20 µL/min, 1×TBS; repeated twice
Protocol: as §3, §4

[4] = tested on: CSK binding to p-caveolin-1 peptide; test: Flow cytometric competitive binding assay (bound CSK on p-caveolin-1 peptide conjugated beads); set-up: species or system human; settings: 10 µg recombinant CSK with SHP-2 protein 1–100 µg; flow cytometry; repeated twice
Protocol: (§5) Human SHP-2 and CSK fusion constructs were produced by consecutively subcloning the protein coding regions of SHP-2 and CSK into the pGEX-6P-1 vector (GE healthcare, Piscataway, NJ, USA). Using these constructs, human SHP-2 and CSK were overexpressed in Escherichia coli (BL21) as soluble. Briefly, the transformed bacteria were grown in LB medium with 0.1 mg/ml ampicillin at 37°C to an A600 of 0.6, and then cultured for an additional overnight at 27°C after being induced with 0.5 mM IPTG (Duchefa Biochemie, Netherlands). The cells were harvested by centrifugation at 8000 g for 20 min, resuspended in PBS pH 7.4, and then disrupted by ultrasonication. The supernatant was purified with glutathione agarose 4B (Incospharm, Daejeon, South Korea) in PBS pH 7.4. The bound proteins were eluted with a linear gradient 10 mM glutathione in 50 mM Tris (pH 8.0). All proteins were concentrated with a Centricon apparatus (Miliipore, Darmstadt, Germany). Proteins were quantitated with the Bradford assay, then filtered and stored at −70°C until use. […]
Figure 6 Small interfering RNA targeting CSK facilitates H2O2-mediated binding between caveolin-1 and SHP-2. […] Fluorescent intensities were measured by Accuri C6 flow cytometer.

[5] = tested on: recombinant SHP-2 protein; test: Bead-based flow cytometric binding assay, SHP-2; set-up: species or system human; settings: caveolin-1 (1–50 a.a.) peptide on carboxyl beads; SHP-2 protein 1–10 µg, 1 h, RT; flow cytometry; repeated twice
Protocol: as §5, §4

recombinant CSK protein = test: Bead-based flow cytometric binding assay, CSK; set-up: species or system human; settings: caveolin-1 (1–50 a.a.) peptide on carboxyl beads; CSK protein 1–10 µg, 1 h, RT; flow cytometry; repeated twice
Protocol: as §5, §4

CC(C)(c1ccc(NS(=O)(=O)C(F)(F)F)cc1)c1ccc(C(C)(C)c2ccc(NS(=O)(=O)C(F)(F)F)cc2)cc1 [PTPi IV]
H2O2-mediated phosphorylation of Src at Tyr 419 [1]: dose-dependent decrease
H2O2-mediated phosphorylation of Src at Tyr 530 [2]: no significant change
ERK phosphorylation (ERK phosphorylation): strongly inhibited; also recorded: reduced
FAK phosphorylation (FAK phosphorylation): strongly inhibited; also recorded: reduced
SHP-2 phosphorylation at Y542 and Y580 [3]: significantly reduced

GHL-pY-TVPIREQGN [Cav-1 pY 14, synthetic peptide phosphorylated at a Tyr residue corresponding to Tyr 14 of caveolin-1]
difference in kinetic rates or RUs, rGST-SHP-2 versus rGST-CSK (recombinant GST-SHP-2; rGST-SHP-2 compared with rGST-CSK, immobilized on G1 chip, peptide 10 to 1,000 µg/mL): no significant difference in their kinetic rates or RUs
SPR binding affinity (recombinant GST-SHP-2; rGST-SHP-2 immobilized on G1 chip, peptide 10 to 1,000 µg/mL injected, 20 µL/min, 1×TBS, repeated twice): high affinity
SPR binding affinity (recombinant GST-CSK): high affinity

SHP-2 protein: human SHP-2 overexpressed in Escherichia coli (BL21) from pGEX-6P-1, glutathione agarose purified
amount of bound CSK on p-caveolin-1 peptide conjugated beads [4]: reduced by adding increasing concentrations of SHP-2 protein

p-caveolin-1 peptide: Fifty-amino acid-long synthetic peptides of caveolin-1 (1–50 a.a.) conjugated to carboxyl beads using EDC (MSGGKYVDSEGHLYTVPIREQGNIYKPNNKAMADELSEKQVYDAHTKEID; also: phosphorylated, sites not given here; UniProt Q03135 1-50, looked up, fragment)
binding of SHP-2 to peptide conjugated beads [5]: significantly bound
binding of CSK to peptide conjugated beads (recombinant CSK protein): significantly bound
